From patent publication US20030211076A1, “Compositions and methods for treatment of proliferative disorders” (priority 2003, published 2003) come the findings set out here.

Entries after “also recorded” stand apart in the source; their conditions may differ.

Holding throughout (format): cell-based
Assay [1] deals with ERK1 and ERK2 MAP kinases. Description: FGF2-stimulated MAP kinase phosphorylation, Western blot. The procedure: Since activation of MAP kinases by FGF2 is one of the earliest mitogenic signaling events within cells (Maher), the effects of LO on FGF2-stimulated MAP kinase phosphorylation were tested by Western blot analysis using an antibody specific for phospho-extracellular signal-regulated kinases 1 and 2 (ERK1 and ERK2). The amount of total ERK1 and ERK2 MAP kinases within the same cell extracts was determined by using an antibody that recognizes both the phospho- and non-phospho-forms of ERK1 and ERK2. […] Cell extracts were prepared and equal amounts of proteins (25 μg) were analyzed by 10% SDS-PAGE. Immunoblotting was performed using antibodies specific for the active forms of ERK1 and ERK2 (A) and total ERKs (B).
Background: A western blot detects proteins with antibodies after separation by electrophoresis.

Assay [2] deals with growth-arrested Swiss 3T3 cells. Kind of assay: PDGF-AB-stimulated cell cycle progression, FACS analysis. The procedure: Growth-arrested Swiss 3T3 cells were incubated for 20 h at 37° C. with or without PDGF-AB, LO, BAPN or their combinations as indicated. After incubation, FACS analysis was carried out to characterize the cell cycle progression under different conditions as described in FIG. 6. FIG. 20A represents a dose response of PDGF-AB in cell cycle progression. FIG. 20B represents the LO inhibition of PDGF-AB-stimulated cell cycle progression (the control represents cells treated with 15 ng ml^−1 PDGF-AB in the absence of added LO). FIG. 20C represents the effects of inactivation of LO by BAPN on PDGF-AB-stimulated the cell cycle progression. LO: 15 nM, PDGF-AB: 15 ng ml^−1, BAPN: 100 AM. Data represent the means (±sd) of three separate experiments each assessed with triplicate dishes.

In assay [3] the test system is FGF2 nuclear localization in Swiss 3T3 cells. Kind of assay: FGF2 nuclear localization, immunochemical staining. The protocol: After endocytosis, a fraction of exogenous FGF2 can enter the nucleus of a variety of cell types in a cell cycle-dependent manner (Mason; Rifkin et al.; Prats et al.; Stachowiak et al., 1996; Arese et al.; Baldin et al.). Thus, the possibility that oxidation of FGF2 by LO affects the nuclear localization of this growth factor was tested by using immunochemistry. In FIGS. […]

Assay [4] concerns VEC on Matrigel. Description: Angiogenic response of Tat-stimulated VEC on Matrigel. The procedure:
VEC grown on Matrigel, a solid gel of basement membrane proteins, rapidly align and form capillary-like structures providing a convenient in vitro model for angiogenesis studies (Albini et al., 1995; Grant et al.). Tat has been reported to enhance this in vitro morphogenesis of VEC consistent with its angiogenic property (Albini et al., 1995).
Cells (3×10^5) were plated on Matrigel-coated dishes. After 1 h incubation, various reagents were added to each culture. […] The following represents FIG. 15 phase-contrast microscopy: A, control; B, 10 ng ml^−1 Tat; C, 10 ng ml^−1 Tat+10 nM LO; D, 10 ng ml^−1 Tat+10 nM LO that was preincubated with 100 μM BAPN for 15 min at 370; E, 100 μM BAPN, alone, and F, 10 nM LO, alone.

Assay [5] relates to VEC on Matrigel. Description: Time course of angiogenic response of VEC on Matrigel without Tat stimulation. As to conditions: 6, 24 and 48 h. The protocol: Time course studies on inhibition by LO of angiogenic response of VEC on Matrigel without Tat stimulation was also investigated. Cells (3×10^5) were plated on Matrigel-coated dishes. After 1 h incubation, various reagents were added to each culture. […] At each time point, a, control; b,10 nM LO; c,10 nM LO that was preincubated with 100 μM BAPN for 15 min at 37°; d, 100 μM BAPN, alone.

The test system of assay [6] is porcine pulmonary arterial vascular endothelial cells (VEC). Kind of assay: Growth of Tat-stimulated vascular endothelial cells (cell counting, phase-contrast microscopy). The protocol: Stimulation of cell proliferation of porcine pulmonary arterial vascular endothelial cells (VEC) was tested with LO-oxidized Tat. VEC (2×10^4) were plated and incubated overnight in 35 mm-dishes containing 2 ml 15% FBS/M199 medium, and then refed with 5% FBS/M199 with different treatment regimens as shown in A, B and C of FIG. 13. FIG. 13A represents a dose response of Tat-stimulated cell growth. Media were supplemented with Tat at the indicated doses and cells were incubated for additional 3 days. Cultures were refed once during the incubation period with fresh media supplemented with Tat at indicated doses. Cells were harvested by trypsinization and counted with a hemacytometer. FIG. 13B represents the LO inhibition of Tat-stimulated cell growth. FIG. 13C represents the effects of inactivation of LO by BAPN on Tat-stimulated cell growth. LO: 3 or 10 nM, Tat: 10 ng ml^−1, BAPN: 100 μM. Data represent the means (±sd) of three separate experiments each assessed with triplicate dishes.
Numerical and morphological alterations in Tat-stimulated VEC cells treated with LO were observed under phase-contrast microscopy (25'). Cells were cultured as described in FIG. 13 and treated with additives as indicated below. The following represents FIG. 14 phase contrast microscopy: A, control; B, 10 ng ml^−1Tat; C, 10 ng ml^−1 Tat+3 nM LO; D, 10 ng ml^−1 Tat+3 nM LO that was preincubated with 100 μM BAPN for 15 min at 370; E, 100 μM BAPN, alone, and F, 3 nM LO, alone.

On to `N#CCCN` [BAPN, β-Aminopropionitrile, reference compound], for which the “effect on LO inhibition of FGF2 activation of MAP kinases” value in assay [1] (5 ng/ml FGF2 + 10 nM LO + 100 μM BAPN) was “abolished”. The “state of phosphorylation of MAP kinases” value in assay [1] (100 μM BAPN alone) was “did not affect”. Besides, in assay [2] (100 μM BAPN with LO 15 nM and 0.56 nM PDGF), the “cell cycle progression relative to the level stimulated with PDGF-AB alone” value stood at 100.4%. In assay [3] (100 μM BAPN with LO and FGF2), the “effect on LO inhibition of nuclear translocation of FGF2” value is “prevented”. The “FGF2 transport to the nucleolus” value in assay [3] (BAPN in the absence of added LO) is recorded as “increased FGF2 transport to the nucleolus”. Besides, the “effect on LO-mediated inhibition of the angiogenic response” value in assay [4] (10 nM LO preincubated with 100 μM BAPN for 15 min) is recorded as “not prevented”. In assay [5] (100 μM BAPN alone), the “organization of VEC to form capillary-like structure” value is reported as “did not have significant effects”. Besides, in assay [6] (100 μM BAPN alone), the cell growth entry is on record as “had no effect on the cell growth”. Moreover, the “effect on LO inhibition of Tat-stimulated cell growth” value in assay [6] (100 μM BAPN, LO 3 or 10 nM, Tat 10 ng/ml) is given as “totally inhibited; also recorded: cells sustained growth to confluence”.

Take lysyl oxidase [LO]: the “levels of phospho-MAP kinases” value in assay [1] (5 ng/ml FGF2 and 10 nM LO, 10 min) is on record as “reduced”. Further, the “levels of phospho-ERK1/2” value in assay [1] (10 nM LO without BAPN or FGF2) is listed as “slightly increased”. Also, in assay [2] (15 nM (0.48 μg/ml) LO, 0.56 nM PDGF-AB), the “decrease of PDGF-AB-induced cell cycle progression” value was 73%. For the same molecule, the “levels of nuclear FGF2” value in assay [3] (LO in the absence of exogenous FGF2 or BAPN) is given as “reduced levels of nuclear FGF2”. Moreover, in assay [3] (simultaneously incubated with FGF2 and 10 nM LO), the “intranuclear FGF2” value is given as “did not exhibit enhanced levels of intranuclear FGF2”. Also, the “Tat-stimulated morphogenesis of VEC” value in assay [4] (10 ng/ml Tat + 10 nM LO) is “effectively blocked”. Besides, the “organization of VEC to form capillary-like structure” value in assay [5] (10 nM LO preincubated with 100 μM BAPN (BAPN-inactivated)) and in assay [5] (10 nM active LO) was “strong inhibitory effects” throughout. Also, the Tat-dependent cell proliferation result in assay [6] (LO at 3 nM, Tat 10 ng/ml) is recorded as “effectively suppressed the Tat-dependent cell proliferation to the control level; also recorded: the growth stimulating ability of Tat was inhibited”. In addition, in assay [6] (LO at doses ≧10 nM, Tat 10 ng/ml), the cell numbers result was “severe loss in cell numbers below the control”.
